Measured values published in patent US5399565A, “Pyrazolidinone CCK and gastrin antagonists and pharmaceutical formulations therof” (priority 1993, dated 1995).

Key:
[1] = target: T1, peripheral type CCK receptors in rat pancreas (Rattus norvegicus, UniProt P30551); assay: Binding to peripheral type CCK receptors in rat pancreas (3H-L-364,718); conditions: at 10 μM; read-out: Pancreas Percent Inhibition
T1 construct: Pancreas was obtained from male Sprague-Dawley rats; from tissue; host or cells: pancreas membranes of male Sprague-Dawley rats
T1 sequence (P30551 1-444): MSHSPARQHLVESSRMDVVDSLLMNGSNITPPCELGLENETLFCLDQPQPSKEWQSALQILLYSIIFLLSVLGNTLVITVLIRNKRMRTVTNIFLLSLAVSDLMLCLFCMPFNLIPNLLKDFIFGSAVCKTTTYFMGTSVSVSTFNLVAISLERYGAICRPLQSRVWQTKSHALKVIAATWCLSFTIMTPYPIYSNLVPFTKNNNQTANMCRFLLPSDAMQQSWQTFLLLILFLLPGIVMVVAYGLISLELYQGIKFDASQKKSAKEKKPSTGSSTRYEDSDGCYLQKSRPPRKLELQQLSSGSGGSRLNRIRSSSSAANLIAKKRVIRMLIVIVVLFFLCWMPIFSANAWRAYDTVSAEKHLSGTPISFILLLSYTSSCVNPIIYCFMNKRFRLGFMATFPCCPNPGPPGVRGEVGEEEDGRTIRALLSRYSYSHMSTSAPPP
Procedure, shortened: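 Washed pancreatic membranes from male Sprague-Dawley rats (150-200 g) incubated 1 h at room temperature with 0.4-0.6 nM ³H-L-364,718 in 50 mM Tris pH 7.4, 5 mM MgCl2, bacitracin, 5 mM DTT. Bound radioactivity counted after filtration; nonspecific binding defined with 100 nM L-364,718; IC50 determined.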

[2] = CCK-induced colonic motility in anesthetized ferrets; type: in vivo, male ferrets
Description: (§1) Experiments were performed on fasted (18 hour) male ferrets weighing 0.8-1.5 kilograms (Triple F Supplier) and water was given ad lib. Anesthesia was induced with urethane (0.2 ml/100 grams body weight j.p., Sigma Chemical Company), a tracheal tube was inserted to provide a clear airway for spontaneous breathing and the body temperature was maintained at 38° using a homeothermic blanket (Harvard Apparatus). The left jugular vein was cannulated (PE-50, i.d. 0.58 mm, o.d. 0.97 mm) for the subsequent administration of drugs and the left carotid artery was cannulated (PE-90, i.d. 0.86 mm, o.d. 1.277 mm) for the continual measurement of blood pressure and heart rate. Following a laporatomy, a catheter (PE-50) was inserted into the gall bladder through the bile duct and connected via a pressure transducer to a chart recorder for the visual display. The colon was located and a strain gauge transducer was sutured in the circular muscle direction to monitor contractile state. Before each experiment the blood pressure, heart rate and all motility recording transducers were calibrated for subsequent recording of data.
Following a 30 minute stabilization period, cholecystokinin 8-sulfated (CCK8-S) was given at doses of 100, 300 and 700 ng/kg intravenously (iv), with a 10 minute stabilization period in between CCK8-S doses. […]

brain CCK receptor = target: T2, brain CCK receptor (Mus musculus, UniProt P56481); assay: CCK receptor binding, mouse brain membranes (125I-CCK-8 sulfate)
T2 construct: from tissue; host or cells: forebrain membranes of male CF-1 mice
T2 sequence (P56481 1-453): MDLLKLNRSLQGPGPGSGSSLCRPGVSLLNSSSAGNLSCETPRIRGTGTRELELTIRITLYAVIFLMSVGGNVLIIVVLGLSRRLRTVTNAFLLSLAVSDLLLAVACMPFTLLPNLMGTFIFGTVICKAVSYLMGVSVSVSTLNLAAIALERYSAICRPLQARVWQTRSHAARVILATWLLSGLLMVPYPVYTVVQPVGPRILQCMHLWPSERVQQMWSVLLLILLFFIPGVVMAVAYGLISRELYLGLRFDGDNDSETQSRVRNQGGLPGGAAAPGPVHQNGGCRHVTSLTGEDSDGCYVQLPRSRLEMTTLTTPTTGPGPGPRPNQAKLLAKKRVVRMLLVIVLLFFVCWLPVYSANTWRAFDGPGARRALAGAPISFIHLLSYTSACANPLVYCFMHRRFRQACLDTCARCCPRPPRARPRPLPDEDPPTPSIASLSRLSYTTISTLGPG

[3] = CCK-induced gall bladder emptying in anesthetized ferrets; type: in vivo, male ferrets
Description: as §1
Following a 30 minute stabilization period, cholecystokinin 8-sulfated (CCK8-S) was given at doses of 100, 300 and 700 ng/kg intravenously (iv), with a 10 minute stabilization period in between CCK8-S doses. The test compound was administered (iv) after another 30 minute stabilization period, and the CCK8-S dose-response curve was repeated five minutes later.
Test compound vehicle was 3 drops of DMSO (99.9%), 0.5 ml 0.1N NaOH, saline.

[4] = Block of haloperidol-induced catalepsy, bar test; type: in vivo, Male Sprague-Dawley rats; conditions: vehicle pretreatment, then Hal
Description: Further, compounds of this invention were evaluated for their ability to block haloperidol-induced catalepsy. […] More preferredly, R and R^1 are trans.
Male Sprague-Dawley rats (290-350 g) were used in these studies. […] In a separate set of experiments, the compounds of this invention were administered 60 minutes prior to the administration of haloperidol, and catalepsy was evaluated every 60 minutes for three hours after the haloperidol injection. Catalepsy scores of drug-treated animals were compared to haloperidol- or vehicle-treated animals at each time point using the analysis of variance (ANOVA) (Table V). Haloperidol (Research Biochemicals Inc.) was dissolved in distilled water and a small amount of 0.1N lactic acid. The compounds of this invention were prepared in 50% ethanol. The volume of all injections was 1 ml/kg.

Catalepsy bar test = type: in vivo, Male Sprague-Dawley rats
Description: Acute administration of classical antipsychotic drugs results in catalepsy. Production of catalepsy is thought to be predictive of Parkinson-like extrapyramidal side effects. Sanberg, et al., Neuroscience 102:748-759 (1988). […] Haloperidol, a classical anti-psychotic, was used as a reference.
Male Sprague-Dawley rats (290-350 g) were used in these studies. Catalepsy was evaluated using the bar test (Sanberg et al., Neurosci., 102,748-759, (1988); Ferre, et al., Pharm. Biochem. Beh., 35, 753-757 (1990). The bar apparatus consisted of a horizontal metal rod with a diameter of 1 cm, which was positioned 10 cm from the floor to the top of the bar. The animal was gently placed in front of the bar, and then its forepaws were lifted to rest on the bar. The length of time, in seconds, until both forepaws touched the floor (3 minutes maximum allowed) was recorded. A baseline measurement was taken prior to injection, and catalepsy was evaluated every 60 minutes for three hours after injection of the compounds (Table IV). In a separate set of experiments, the compounds of this invention were administered 60 minutes prior to the administration of haloperidol, and catalepsy was evaluated every 60 minutes for three hours after the haloperidol injection. Catalepsy scores of drug-treated animals were compared to haloperidol- or vehicle-treated animals at each time point using the analysis of variance (ANOVA) (Table V). Haloperidol (Research Biochemicals Inc.) was dissolved in distilled water and a small amount of 0.1N lactic acid. The compounds of this invention were prepared in 50% ethanol. The volume of all injections was 1 ml/kg.

[5] = Auditory startle response, benzodiazepine (diazepam) withdrawal; type: in vivo, Male Long Evans rats; conditions: for benzodiazepine withdrawal-induced increase in sensory responsiveness: 60 minutes before startle testing, days 1-4
Text: (§2) In humans, withdrawal from the chronic administration of benzodiazepines or nicotine can result in a variety of undesirable side-effects, including anxiety. […] Withdrawal from chronic nicotine administration also has anxiogenic effects as indicated by decreased time spent in the light compartment of a light/dark box (Costall et al., Ibid) and increased auditory startle responses. Applicants examined the effects of compounds of this invention on the auditory startle response of rats undergoing withdrawal from the chronic administration of diazepam or nicotine.
(§3) Male Long Evans rats (200-220 g; Harlan Sprague Dawley, Columbus, Ind.) were individually housed in a controlled environment on a 12 hour light-dark cycle and were given free access to food (Purina Rodent Chow) and water. All treatment groups contained 8-10 rats.
(§4) Rats were anesthetized with halothane and Alzet osmotic minipumps (Alza Corporation, Palo Alto, Calif., Model 2ML2) were implanted subcutaneously. Diazepam (Sigma Chemical; St. Louis, Mo.) was suspended in 40% polyethylene glycol, 10% ethanol and Tween 80. Nicotine ditartrate was dissolved in physiological saline. Pumps were filled with either diazepam (20 mg/kg/day), nicotine ditartrate (6 mg/kg base/day), or the appropriate vehicle. Twelve days following implantation of pumps, rats were anesthetized with halothane and the pumps were removed.
(§5) The sensory motor reactions [auditory startle response (peak amplitude, Vmax)]of individual rats was recorded using San Diego Instruments startle chambers (San Diego, Calif.). Startle sessions consisted of a 5-minute adaptation period at a background noise level of 70±2 dBA immediately followed by 25 presentations of auditory stimuli (120±3 dBA noise, 50 ms duration) presented at 8-second intervals. Peak startle amplitudes were then averaged for all 25 presentations of stimuli for each session. Auditory startle responding was evaluated daily at 24 hour intervals on days 1-4 following drug withdrawal.
(§6) The compound of Example 141 was administered 60 minutes before startle testing at doses of 0, 10, 30, 60, or 100 mg/kg.

[6] = Auditory startle response, nicotine withdrawal; type: in vivo, Male Long Evans rats
Text: as §2, §3, §4, §5, §6

O=C1NN(C(=O)Nc2ccccc2)[C@@H](c2ccccc2)[C@@H]1c1ccccc1 (racemic) [Example 15, (±)-trans-1-phenylaminocarbonyl-4,5-diphenyl-3-pyrazolidinone]
inhibition at 10 µM [1]: 10%
inhibition of CCK-induced colonic motility ([2]; 1 mg/kg iv, CCK 300 ng/kg): 57%
inhibition of colonic motility ([2]; CCK-8 100 ng/kg): ~75%
inhibition at 10 µM (brain CCK receptor; at 10 μM, read-out: Brain Percent Inhibition): 69%
gall bladder emptying ([3]; 1 mg/kg iv, CCK 300 ng/kg): not measurably altered
alteration of CCK-induced gall bladder emptying ([3]; CCK-8 100 ng/kg): about 10%
effect on CCK-induced gall bladder emptying ([3]; in words): without affecting CCK-induced gall bladder emptying

O=C(CCCN1CCC(O)(c2ccc(Cl)cc2)CC1)c1ccc(F)cc1 [Haloperidol]
Catalepsy Score ([4]; 60 Min): 9.72 ± 2.1 s
Catalepsy Score ([4]; 120 Min): 27.42 ± 6 s
Catalepsy Score ([4]; 180 Min): 30.61 ± 6.4 s
Catalepsy Score ([4]; Pre): 3.12 ± 0.61 s
Catalepsy Score (Catalepsy bar test; 0.25 mg/kg, 60 Min): 2.2 ± 0.3 s
Catalepsy Score (Catalepsy bar test; 0.25 mg/kg, 120 Min, * P < 0.001 vs vehicle): 9.9 ± 2.7 s
Catalepsy Score (Catalepsy bar test; 0.25 mg/kg, 180 Min, * P < 0.001 vs vehicle): 23.1 ± 4.9 s
Catalepsy Score (Catalepsy bar test; 0.25 mg/kg, Pre): 1.8 ± 1.1 s
Catalepsy Score (Catalepsy bar test; 0.5 mg/kg, 60 Min): 3.3 ± 1.7 s
Catalepsy Score (Catalepsy bar test; 0.5 mg/kg, 120 Min, * P < 0.001 vs vehicle): 17.6 ± 2.2 s
Catalepsy Score (Catalepsy bar test; 0.5 mg/kg, 180 Min, * P < 0.001 vs vehicle): 33.5 ± 8.3 s
Catalepsy Score (Catalepsy bar test; 0.5 mg/kg, Pre): 0.9 ± 0.2 s
Catalepsy Score (Catalepsy bar test; 1.0 mg/kg, 60 Min, * P < 0.001 vs vehicle): 10.6 ± 6.3 s
Catalepsy Score (Catalepsy bar test; 1.0 mg/kg, 120 Min, * P < 0.001 vs vehicle): 100.0 ± 46.2 s
Catalepsy Score (Catalepsy bar test; 1.0 mg/kg, 180 Min, * P < 0.001 vs vehicle): 123.9 ± 39.7 s
Catalepsy Score (Catalepsy bar test; 1.0 mg/kg, Pre): 1.2 ± 0.4 s

CN1C(=O)CN=C(c2ccccc2)c2cc(Cl)ccc21 [diazepam, reference compound]
auditory startle response after cessation of chronic diazepam ([5]; 20 mg/kg/day, minipump, twelve days, withdrawal): significantly increased auditory startle responses

O=C1NN(C(=O)Nc2ccc(Br)cc2)[C@@H](c2ccccc2)[C@@H]1c1ccccc1 (single isomer, unassigned) [Example 141, (+)-trans-1-[(4-Bromophenyl)aminocarbonyl]-4,5-diphenyl-3pyrazolidinone]
nicotine withdrawal-induced increase in startle response ([6]; 10 mg/kg, days 1-4): significantly reduced the nicotine withdrawal-induced increase in startle response on all days except day 4
nicotine withdrawal-induced increase in sensory responsiveness ([6]; 30 mg/kg, days 1-4): significantly reduced the nicotine withdrawal-induced increase in sensory responsiveness on all days examined
nicotine withdrawal-induced increase in sensory responsiveness ([6]; 60 mg/kg, days 1-4): significantly reduced the nicotine withdrawal-induced increase in sensory responsiveness on all days examined
IC50 (brain CCK receptor; mouse brain membranes, read-out: Brain IC50): 16 nM
Catalepsy Score (Catalepsy bar test; 10 mg/kg, 60 Min): 3.8 ± 0.9 s
Catalepsy Score (Catalepsy bar test; 10 mg/kg, 120 Min): 3.3 ± 1.2 s
Catalepsy Score (Catalepsy bar test; 10 mg/kg, 180 Min): 4.6 ± 2.1 s
Catalepsy Score (Catalepsy bar test; 10 mg/kg, Pre): 1.1 ± 0.2 s
Catalepsy Score (Catalepsy bar test; 30 mg/kg, 60 Min): 2.6 ± 1.1 s
Catalepsy Score (Catalepsy bar test; 30 mg/kg, 120 Min): 2.0 ± 0.6 s
Catalepsy Score (Catalepsy bar test; 30 mg/kg, 180 Min): 4.9 ± 1.9 s
Catalepsy Score (Catalepsy bar test; 30 mg/kg, Pre): 1.5 ± 0.3 s
benzodiazepine withdrawal-induced increase in sensory responsiveness ([5]; 60 mg/kg): significantly reduced the benzodiazepine withdrawal-induced increase in sensory responsiveness on all days examined
benzodiazepine withdrawal-induced increase in sensory responsiveness ([5]; 100 mg/kg): significantly reduced the benzodiazepine withdrawal-induced increase in sensory responsiveness on all days examined

CN1CCC[C@H]1c1cccnc1 [nicotine, reference compound]
auditory startle response after cessation of chronic nicotine ([6]; 6 mg kg base/day, minipump, twelve days, withdrawal): significantly increased auditory startle responses
